Test results taken from ChEMBL document CHEMBL1153282, “N-substituted 2'-(aminoaryl)benzothiazoles as kinase inhibitors: hit identification and scaffold hopping” (Bioorg Med Chem Lett, 2009).

Tests used:
Aurora kinase A = target: T1, Aurora kinase A (Homo sapiens, UniProt O14965); assay: Inhibition of Aurora A by virtual HTS assay
T1 sequence (O14965 whole entry): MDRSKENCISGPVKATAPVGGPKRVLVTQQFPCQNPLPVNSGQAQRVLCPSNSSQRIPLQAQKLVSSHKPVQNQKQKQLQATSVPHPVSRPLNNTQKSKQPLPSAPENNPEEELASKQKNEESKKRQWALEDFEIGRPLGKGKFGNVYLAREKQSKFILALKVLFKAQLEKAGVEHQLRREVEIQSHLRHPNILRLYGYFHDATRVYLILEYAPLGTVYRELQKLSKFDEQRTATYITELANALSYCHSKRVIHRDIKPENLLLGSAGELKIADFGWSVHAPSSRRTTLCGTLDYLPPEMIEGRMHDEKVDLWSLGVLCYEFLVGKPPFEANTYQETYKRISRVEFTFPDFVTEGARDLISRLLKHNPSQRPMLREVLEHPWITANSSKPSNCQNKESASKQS

[1] = target: Vascular endothelial growth factor receptor 2 (Homo sapiens, UniProt P35968); assay: Inhibition of VEGFR2 by virtual HTS assay
Insulin receptor = Insulin receptor (Homo sapiens, UniProt P06213); assay: Inhibition of insulin receptor by virtual HTS assay
Chain of Insulin receptor (P06213 28-758 limits assumed): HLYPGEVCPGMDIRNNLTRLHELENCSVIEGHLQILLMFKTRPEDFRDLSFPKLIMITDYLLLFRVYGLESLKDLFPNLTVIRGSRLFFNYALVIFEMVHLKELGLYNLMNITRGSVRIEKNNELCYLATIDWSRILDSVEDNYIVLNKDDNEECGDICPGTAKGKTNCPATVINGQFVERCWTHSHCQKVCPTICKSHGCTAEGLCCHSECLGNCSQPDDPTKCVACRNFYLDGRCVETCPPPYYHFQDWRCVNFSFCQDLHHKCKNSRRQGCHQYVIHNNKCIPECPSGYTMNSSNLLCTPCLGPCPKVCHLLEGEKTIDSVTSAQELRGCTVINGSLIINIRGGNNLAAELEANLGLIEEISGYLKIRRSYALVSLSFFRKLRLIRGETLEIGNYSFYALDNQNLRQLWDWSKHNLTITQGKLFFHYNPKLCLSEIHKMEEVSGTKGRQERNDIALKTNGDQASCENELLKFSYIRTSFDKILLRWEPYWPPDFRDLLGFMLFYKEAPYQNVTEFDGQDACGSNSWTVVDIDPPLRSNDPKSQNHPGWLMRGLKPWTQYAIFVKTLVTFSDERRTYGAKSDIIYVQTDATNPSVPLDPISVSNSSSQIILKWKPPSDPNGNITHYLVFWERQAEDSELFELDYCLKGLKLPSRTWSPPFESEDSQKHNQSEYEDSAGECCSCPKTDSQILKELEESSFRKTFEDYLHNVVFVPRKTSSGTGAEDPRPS
Chain of Insulin receptor (P06213 763-1382 limits assumed): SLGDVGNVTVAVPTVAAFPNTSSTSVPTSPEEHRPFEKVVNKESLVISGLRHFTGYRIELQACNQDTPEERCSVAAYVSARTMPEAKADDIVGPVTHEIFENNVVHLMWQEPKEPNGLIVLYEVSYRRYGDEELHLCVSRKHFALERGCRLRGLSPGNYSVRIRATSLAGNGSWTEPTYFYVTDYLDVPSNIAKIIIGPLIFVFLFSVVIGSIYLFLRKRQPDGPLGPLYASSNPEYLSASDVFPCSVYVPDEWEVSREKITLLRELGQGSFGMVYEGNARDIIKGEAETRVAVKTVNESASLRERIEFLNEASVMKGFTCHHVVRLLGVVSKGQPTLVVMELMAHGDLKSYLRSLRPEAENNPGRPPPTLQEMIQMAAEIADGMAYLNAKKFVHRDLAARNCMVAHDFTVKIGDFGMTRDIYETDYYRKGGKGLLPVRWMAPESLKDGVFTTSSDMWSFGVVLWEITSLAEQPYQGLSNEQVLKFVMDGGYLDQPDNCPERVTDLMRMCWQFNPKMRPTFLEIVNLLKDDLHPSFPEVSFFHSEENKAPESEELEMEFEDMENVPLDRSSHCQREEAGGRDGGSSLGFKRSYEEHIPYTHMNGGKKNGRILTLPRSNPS

Ephrin type-B receptor 4 = target: T2, Ephrin type-B receptor 4 (Homo sapiens, UniProt P54760); assay: Inhibition of EphB4 by virtual HTS assay
T2 sequence (P54760 whole entry): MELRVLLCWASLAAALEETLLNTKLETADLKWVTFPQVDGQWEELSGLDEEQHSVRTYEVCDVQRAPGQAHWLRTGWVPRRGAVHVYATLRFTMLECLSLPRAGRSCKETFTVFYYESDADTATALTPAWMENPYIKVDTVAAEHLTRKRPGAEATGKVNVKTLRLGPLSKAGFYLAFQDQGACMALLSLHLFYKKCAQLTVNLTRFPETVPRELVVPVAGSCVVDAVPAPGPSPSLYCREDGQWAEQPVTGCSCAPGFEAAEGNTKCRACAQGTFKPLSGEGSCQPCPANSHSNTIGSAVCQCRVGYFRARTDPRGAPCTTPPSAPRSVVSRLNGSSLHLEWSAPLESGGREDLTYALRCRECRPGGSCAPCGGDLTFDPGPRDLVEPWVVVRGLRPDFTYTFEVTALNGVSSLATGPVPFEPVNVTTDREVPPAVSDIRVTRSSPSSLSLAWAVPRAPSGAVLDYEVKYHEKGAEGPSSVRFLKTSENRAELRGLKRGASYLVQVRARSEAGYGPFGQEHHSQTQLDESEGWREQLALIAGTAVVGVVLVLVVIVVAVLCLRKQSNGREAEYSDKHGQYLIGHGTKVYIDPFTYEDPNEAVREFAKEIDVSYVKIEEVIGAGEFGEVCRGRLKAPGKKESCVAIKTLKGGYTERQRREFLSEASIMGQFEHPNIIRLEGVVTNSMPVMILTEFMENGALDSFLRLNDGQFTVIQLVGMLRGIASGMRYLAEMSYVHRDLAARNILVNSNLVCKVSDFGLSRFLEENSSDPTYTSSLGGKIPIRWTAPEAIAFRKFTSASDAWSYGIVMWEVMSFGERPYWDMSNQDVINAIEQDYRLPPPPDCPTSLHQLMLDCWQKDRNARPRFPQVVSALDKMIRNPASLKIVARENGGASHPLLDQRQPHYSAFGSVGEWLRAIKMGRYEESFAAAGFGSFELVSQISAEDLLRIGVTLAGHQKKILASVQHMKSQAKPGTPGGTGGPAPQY

Aurora kinase B = Aurora kinase B (Homo sapiens, UniProt Q96GD4); assay: Inhibition of Aurora B by virtual HTS assay
[2] = target: Epidermal growth factor receptor (Homo sapiens, UniProt P00533); assay: Inhibition of EGFR by virtual HTS assay
Chain of Epidermal growth factor receptor (P00533 whole entry): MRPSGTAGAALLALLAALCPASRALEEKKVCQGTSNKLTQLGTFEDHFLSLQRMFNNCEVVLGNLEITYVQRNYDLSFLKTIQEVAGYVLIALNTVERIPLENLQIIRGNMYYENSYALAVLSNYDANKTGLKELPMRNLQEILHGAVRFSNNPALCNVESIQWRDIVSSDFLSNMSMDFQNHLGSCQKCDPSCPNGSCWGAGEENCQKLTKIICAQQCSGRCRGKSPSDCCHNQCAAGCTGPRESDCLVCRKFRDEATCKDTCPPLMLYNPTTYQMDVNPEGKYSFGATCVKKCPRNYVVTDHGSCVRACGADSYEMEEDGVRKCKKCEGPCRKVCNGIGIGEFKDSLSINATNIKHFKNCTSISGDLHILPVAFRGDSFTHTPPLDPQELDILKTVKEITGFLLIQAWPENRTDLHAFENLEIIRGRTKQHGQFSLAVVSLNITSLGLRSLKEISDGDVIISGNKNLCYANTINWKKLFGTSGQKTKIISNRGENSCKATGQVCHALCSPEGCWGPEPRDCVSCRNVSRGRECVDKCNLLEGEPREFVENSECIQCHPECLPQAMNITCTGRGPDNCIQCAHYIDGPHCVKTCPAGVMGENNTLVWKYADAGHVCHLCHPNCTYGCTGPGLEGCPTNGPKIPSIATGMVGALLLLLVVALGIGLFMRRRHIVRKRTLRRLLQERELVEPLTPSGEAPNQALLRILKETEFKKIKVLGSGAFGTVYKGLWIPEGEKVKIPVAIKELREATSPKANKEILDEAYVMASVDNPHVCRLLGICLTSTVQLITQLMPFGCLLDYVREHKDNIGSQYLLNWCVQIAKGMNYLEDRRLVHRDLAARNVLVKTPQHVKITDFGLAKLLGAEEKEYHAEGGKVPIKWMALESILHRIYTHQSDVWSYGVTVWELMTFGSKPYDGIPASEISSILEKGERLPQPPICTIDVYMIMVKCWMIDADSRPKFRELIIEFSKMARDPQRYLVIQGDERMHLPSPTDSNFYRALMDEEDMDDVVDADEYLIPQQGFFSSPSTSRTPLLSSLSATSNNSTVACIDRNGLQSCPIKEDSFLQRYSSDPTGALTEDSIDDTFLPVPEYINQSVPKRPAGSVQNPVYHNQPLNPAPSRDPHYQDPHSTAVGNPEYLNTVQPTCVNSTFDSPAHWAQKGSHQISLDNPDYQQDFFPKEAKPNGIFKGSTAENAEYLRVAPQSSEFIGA

[3] = target: Insulin-like growth factor 1 receptor (Homo sapiens, UniProt P08069); assay: Inhibition of IGF1R by virtual HTS assay
Chain of Insulin-like growth factor 1 receptor (P08069 31-736 limits assumed): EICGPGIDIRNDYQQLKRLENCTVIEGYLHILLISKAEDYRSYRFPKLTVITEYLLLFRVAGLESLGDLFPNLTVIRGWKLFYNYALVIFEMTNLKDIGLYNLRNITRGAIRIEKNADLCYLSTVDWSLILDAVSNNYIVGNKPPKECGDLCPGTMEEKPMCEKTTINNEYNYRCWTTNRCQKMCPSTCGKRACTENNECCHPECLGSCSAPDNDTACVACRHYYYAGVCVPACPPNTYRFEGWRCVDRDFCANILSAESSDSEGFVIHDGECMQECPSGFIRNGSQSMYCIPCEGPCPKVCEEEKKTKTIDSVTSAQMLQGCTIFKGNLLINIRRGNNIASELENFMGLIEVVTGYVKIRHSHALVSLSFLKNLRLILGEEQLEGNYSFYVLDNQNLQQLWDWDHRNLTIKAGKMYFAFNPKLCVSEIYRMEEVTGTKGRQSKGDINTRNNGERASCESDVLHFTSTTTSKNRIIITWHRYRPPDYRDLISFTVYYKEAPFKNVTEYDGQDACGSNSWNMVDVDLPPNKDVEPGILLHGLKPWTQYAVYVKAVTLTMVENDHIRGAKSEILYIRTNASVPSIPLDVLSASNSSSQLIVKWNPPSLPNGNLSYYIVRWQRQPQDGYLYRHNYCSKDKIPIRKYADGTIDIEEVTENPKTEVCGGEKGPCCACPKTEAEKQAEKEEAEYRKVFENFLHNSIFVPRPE
Chain of Insulin-like growth factor 1 receptor (P08069 741-1367 limits assumed): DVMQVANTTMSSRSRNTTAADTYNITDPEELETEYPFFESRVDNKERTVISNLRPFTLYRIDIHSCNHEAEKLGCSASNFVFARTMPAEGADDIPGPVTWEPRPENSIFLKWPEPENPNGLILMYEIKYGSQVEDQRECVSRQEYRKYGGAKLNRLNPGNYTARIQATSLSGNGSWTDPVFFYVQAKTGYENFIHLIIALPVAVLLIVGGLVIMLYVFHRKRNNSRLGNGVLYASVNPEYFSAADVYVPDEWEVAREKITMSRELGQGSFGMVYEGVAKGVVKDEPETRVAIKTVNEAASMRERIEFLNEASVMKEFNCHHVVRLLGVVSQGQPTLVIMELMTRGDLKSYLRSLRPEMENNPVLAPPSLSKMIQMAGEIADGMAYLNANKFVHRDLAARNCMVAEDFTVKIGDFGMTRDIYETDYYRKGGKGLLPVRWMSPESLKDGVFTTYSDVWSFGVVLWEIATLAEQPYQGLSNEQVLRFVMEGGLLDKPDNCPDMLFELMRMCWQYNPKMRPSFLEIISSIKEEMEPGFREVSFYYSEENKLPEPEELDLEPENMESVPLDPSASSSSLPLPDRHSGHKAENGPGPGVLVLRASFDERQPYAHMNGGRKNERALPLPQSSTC

[4] = target: Proto-oncogene tyrosine-protein kinase Src (Homo sapiens, UniProt P12931); assay: Inhibition of Src by virtual HTS assay
[5] = target: Vascular endothelial growth factor receptor 3 (Homo sapiens, UniProt P35916)
Description: Inhibition of VEGFR3 by virtual HTS assay

[6] = target: Receptor tyrosine-protein kinase erbB-2 (Homo sapiens, UniProt P04626); assay: Inhibition of ErbB2 by virtual HTS assay
Angiopoietin-1 receptor = Angiopoietin-1 receptor (Homo sapiens, UniProt Q02763); assay: Inhibition of TIE2 by virtual HTS assay
Chain of Angiopoietin-1 receptor (Q02763 whole entry): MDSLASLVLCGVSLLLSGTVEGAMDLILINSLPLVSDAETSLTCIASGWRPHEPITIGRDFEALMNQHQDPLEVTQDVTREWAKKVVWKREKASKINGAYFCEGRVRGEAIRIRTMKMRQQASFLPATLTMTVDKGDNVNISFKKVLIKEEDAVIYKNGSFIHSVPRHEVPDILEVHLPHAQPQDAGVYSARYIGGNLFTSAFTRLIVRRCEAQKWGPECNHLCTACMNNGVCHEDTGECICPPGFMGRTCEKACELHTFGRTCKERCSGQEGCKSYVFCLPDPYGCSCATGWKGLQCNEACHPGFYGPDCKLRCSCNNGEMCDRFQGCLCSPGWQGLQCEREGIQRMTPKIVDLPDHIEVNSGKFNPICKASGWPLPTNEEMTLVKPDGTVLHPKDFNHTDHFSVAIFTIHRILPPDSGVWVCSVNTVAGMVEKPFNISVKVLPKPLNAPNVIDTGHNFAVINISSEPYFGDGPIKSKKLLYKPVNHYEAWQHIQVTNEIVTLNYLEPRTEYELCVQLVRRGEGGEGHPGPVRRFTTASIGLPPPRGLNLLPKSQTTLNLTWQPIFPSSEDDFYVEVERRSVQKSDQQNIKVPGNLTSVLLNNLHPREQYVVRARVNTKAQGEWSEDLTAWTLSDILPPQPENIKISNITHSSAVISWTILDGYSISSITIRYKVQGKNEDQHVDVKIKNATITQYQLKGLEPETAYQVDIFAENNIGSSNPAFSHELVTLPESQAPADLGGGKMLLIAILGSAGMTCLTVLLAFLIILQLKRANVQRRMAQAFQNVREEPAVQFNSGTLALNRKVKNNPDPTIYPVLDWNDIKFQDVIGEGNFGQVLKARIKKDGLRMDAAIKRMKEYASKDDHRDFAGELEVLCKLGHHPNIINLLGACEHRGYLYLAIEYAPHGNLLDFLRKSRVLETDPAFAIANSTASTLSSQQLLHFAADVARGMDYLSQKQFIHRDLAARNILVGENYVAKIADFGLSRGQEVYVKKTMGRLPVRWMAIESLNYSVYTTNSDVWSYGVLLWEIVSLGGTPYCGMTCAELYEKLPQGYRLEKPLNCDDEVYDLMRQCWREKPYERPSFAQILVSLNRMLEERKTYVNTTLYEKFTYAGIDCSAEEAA

Row | Structure (SMILES) | IC50 (Aurora kinase A) [µM] | IC50 [1] [µM] | IC50 (Insulin receptor) [µM] | IC50 (Ephrin type-B receptor 4) [µM] | IC50 (Aurora kinase B) [µM] | IC50 [2] [µM] | IC50 [3] [µM] | IC50 [4] [µM] | IC50 [5] [µM] | IC50 [6] [µM] | IC50 (Angiopoietin-1 receptor) [µM]
1 | c1cc(Nc2ncnc3nc[nH]c23)cc(-c2nc3ccccc3s2)c1 | > 10 | 0.87 | > 10 | 0.84 | > 10 | 1.7 | 1.2 | 1.1 |  |  | 
2 | CN1CCN(c2ccnc(Nc3ccc(-c4nc5ccccc5s4)cc3)n2)CC1 | 0.84 | > 10 | > 10 |  | > 10 | > 10 |  |  | 5.2 | > 10 | 
3 | Cc1cc(Nc2ccnc(Nc3ccc(-c4nc5ccccc5s4)cc3)n2)n[nH]1 | 0.37 | > 10 | > 10 |  | 7 | > 10 |  |  |  |  | 
4 | COc1cc(Nc2nccc(Nc3cc(C)n[nH]3)n2)ccc1-c1nc2ccccc2s1 | 0.32 | > 10 | > 10 |  | 3.1 | > 10 |  |  | > 10 | > 10 | 
5 | Cc1cc(Nc2cc(Nc3ccc(-c4nc5ccccc5s4)cc3)ccn2)[nH]n1 | 1.3 | 8.8 | > 10 |  | 1.8 | > 10 |  |  | 6.5 | > 10 | 
6 | CNc1ccnc(Nc2ccc(-c3nc4ccccc4s3)cc2)n1 | 1.5 |  |  |  |  |  |  |  |  |  | 
7 | CN(C)c1ccnc(Nc2ccc(-c3nc4ccccc4s3)cc2)n1 | > 10 | > 10 | > 10 |  | > 10 | > 10 |  |  |  |  | 
8 | COc1cc(Nc2ncnc3[nH]ccc23)ccc1-c1nc2ccccc2s1 | > 10 | > 10 | > 10 |  | > 10 | 0.72 | 3.6 | > 10 | > 10 | 1.6 | 8.6
9 | COc1nc(Nc2ccc(-c3nc4ccccc4s3)cc2)c2cc[nH]c2n1 | > 10 | 10 | > 10 |  | > 10 |  | 4.4 | 6.4 | > 10 | > 10 | 8.7
10 | CNc1cc(Nc2ccc(-c3nc4ccccc4s3)cc2)ccn1 | > 10 | > 10 | > 10 |  | > 10 | > 10 |  |  | 6 | > 10 | 
11 | CNC(=O)c1cc(Nc2ccc(-c3nc4ccccc4s3)cc2)ccn1 | > 10 | 3.6 | > 10 |  | > 10 | 2 |  |  | > 10 | 1.1 | 
12 | c1ccc2sc(-c3ccc(Nc4ncnc5ccsc45)cc3)nc2c1 | 2.8 | > 10 | > 10 |  | 0.72 | > 10 | > 10 | > 10 | > 10 | > 10 | > 10
13 | COc1cc2ncnc(Nc3ccc(-c4nc5ccccc5s4)c(O)c3)c2cc1OC | > 10 | 6.9 | > 10 | > 10 | 4.2 | 2.2 | > 10 | > 10 |  |  | 
14 | COc1cc2ncnc(Nc3ccc(-c4nc5ccccc5s4)c(OC)c3)c2cc1OC | > 10 | > 10 | > 10 | > 10 | > 10 | 0.063 | > 10 | > 10 |  |  | 
15 | COc1cc2ncnc(Nc3ccc(-c4nc5ccccc5s4)cc3)c2cc1OC | 0.35 | 6.8 | > 10 | > 10 | 0.135 | 1.5 | > 10 | > 10 |  |  | 
16 | Clc1cc(Nc2ncnc3ccsc23)ccc1-c1nc2ccccc2s1 | > 10 | > 10 | > 10 |  | > 10 | > 10 | > 10 | > 10 | > 10 | > 10 | 4.4
17 | Fc1cc(-c2nc3ccccc3s2)ccc1Nc1ncnc2ccsc12 | 4 | > 10 | > 10 |  | 0.29 | > 10 | > 10 | > 10 | > 10 | > 10 | 4.1
18 | COc1cc(Nc2ccnc3cc(Cl)ccc23)ccc1-c1nc2ccccc2s1 | > 10 | > 10 | > 10 | > 10 | > 10 | > 10 | > 10 | > 10 |  |  | > 10
19 | COc1nc(Nc2ccc(-c3nc4ccccc4s3)c(OC)c2)c2cc[nH]c2n1 | > 10 | 0.96 | > 10 |  | > 10 | 5.1 | 2.9 | 2.1 | 7.7 | > 10 | 2.5
20 | COc1cc(Nc2ncnc3nc[nH]c23)ccc1-c1nc2ccccc2s1 | 5.8 | 9.2 | > 10 |  | > 10 | 2.6 | > 10 | > 10 | 3.4 | > 10 | 1.3
21 | c1cc(Nc2ncnc3[nH]ccc23)cc(-c2nc3ccccc3s2)c1 | > 10 | > 10 |  | > 10 | 6.4 |  | > 10 | > 10 |  |  | 1.2
22 | CNc1nccc(Nc2ccc(-c3nc4ccccc4s3)cc2)n1 | > 10 | 8.9 | 9.7 |  | > 10 | > 10 |  |  | 6.9 | > 10 | 
23 | COc1cc(Nc2ncnc3ccsc23)ccc1-c1nc2ccccc2s1 | > 10 | > 10 | > 10 |  | > 10 | > 10 | > 10 | > 10 | > 10 | > 10 | > 10
24 | CNc1nc(Nc2ccc(-c3nc4ccccc4s3)cc2)c2cc(OC)c(OC)cc2n1 | > 10 | > 10 | 0.63 | > 10 | > 10 | > 10 | > 10 | > 10 |  |  | > 10
25 | COc1cc2ncnc(Nc3ccc(-c4nc5ccccc5s4)cc3C)c2cc1OC | 4.4 | 3.4 | > 10 | > 10 | 3.7 |  | > 10 | > 10 |  |  | 0.84
26 | c1ccc2sc(-c3ccc(Nc4ncnc5nc[nH]c45)cc3)nc2c1 | > 10 | > 10 | > 10 |  | > 10 | 7.8 | > 10 | > 10 |  |  | 
27 | c1ccc2sc(-c3ccc(Nc4ncnc5[nH]ccc45)cc3)nc2c1 | 8 | 1.2 | 6.95 |  | > 10 | 1.3 | 1.5 | 1.5 | 2.1 | 3.1 | 1.9
28 | COc1cc2nc(Nc3cc(C)[nH]n3)nc(Nc3cccc(-c4nc5ccccc5s4)c3)c2cc1OC | 5.5 |  |  |  | > 10 |  |  |  |  |  | 4.4
